Measured values reported in patent US20240002404A1, “SALT OF PYRROLOPYRIMIDINE COMPOUND, CRYSTALLINE FORM THEREOF, AND APPLICATION THEREOF” (GUANGZHOU JOYO PHARMATECH CO., LTD, priority 2020, published 2024).

Columns and labels:
JAK1(h) = JAK1(h) (Homo sapiens (Human), UniProt P23458); test: In vitro activity assay of JAK1 kinase (radiometric, Eurofins); format: biochemical
Method: (§1) Recombinant human JAK1, JAK2, JAK3 and TYK2 […], and main instruments and reagents were provided by Eurofins, UK.
(§2) Dilution of JAK2, JAK3 and TYK2: 20 mM 3-(N-morpholino)propanesulfonic acid (MOPS), 1 mM EDTA, 0.01% Brij-35.5% glycerol, 0.1% β-mercaptoethanol, 1 mg/mL BSA; dilution of JAK1: 20 mM TRIS, 0.2 mM EDTA, 0.1% β-mercaptoethanol, 0.01% Brij-35.5% glycerol. All compounds were prepared into a 100% DMSO solution and brought to 50-fold the final assay concentration. The test compounds were diluted in 3-fold concentration gradient with 9 final concentrations from 10 μM to 0.001 μM, wherein DMSO content in the assay reaction was 2%. Working stock solutions of the compounds were added to the assay wells as the first component of the reaction, and then the remaining components were added according to the protocol detailed for the assay below.
(§3) JAK1(h) was incubated with 20 mM Tris/HCl pH 7.5, 0.2 mM EDTA, 500 μM MGEEPLYWSFPAKKK, 10 mM magnesium acetate and [γ-^33P]-ATP (activity and concentration were determined as required). […] 10 μL of the reaction mixture was then added dropwise on a P30 filter pad and washed three times with 0.425% phosphoric acid and once with methanol within 4 minutes, then dried and analyzed using a scintillation counter.

[1] = tested on: adjuvant-induced arthritis (AIA); test: Adjuvant-induced arthritis (AIA) in rats, in-vivo pharmacodynamic study; parameters: species or system Lewis rats; conditions: rat AIA
Method: The compounds disclosed herein were tested for their efficacy on arthritis using a model of adjuvant-induced arthritis in rat. Female, 160 to 180 gram Lewis rats were anesthetized with isoflurane and injected subcutaneously with 0.1 mL of Mycobacterium tuberculosis suspension in the left hind paw. The animals were grouped and administered with thetest compounds after 13 days of modeling, for example, the rats were given different doses as shown in Table 4-2. The test compound 1-13 was dissolved in a mixed menstruum of [5% DMSO, 95% (12% SBE-β-CD), 0.5% MC]. The female Lewis rats were orally administered 2 times daily (8 animals in each group).

JAK2(h) = JAK2(h) (Homo sapiens (Human), UniProt O60674); test: In vitro activity assay of JAK2 kinase (radiometric, Eurofins); format: biochemical
Chain of JAK2(h) (O60674 whole entry): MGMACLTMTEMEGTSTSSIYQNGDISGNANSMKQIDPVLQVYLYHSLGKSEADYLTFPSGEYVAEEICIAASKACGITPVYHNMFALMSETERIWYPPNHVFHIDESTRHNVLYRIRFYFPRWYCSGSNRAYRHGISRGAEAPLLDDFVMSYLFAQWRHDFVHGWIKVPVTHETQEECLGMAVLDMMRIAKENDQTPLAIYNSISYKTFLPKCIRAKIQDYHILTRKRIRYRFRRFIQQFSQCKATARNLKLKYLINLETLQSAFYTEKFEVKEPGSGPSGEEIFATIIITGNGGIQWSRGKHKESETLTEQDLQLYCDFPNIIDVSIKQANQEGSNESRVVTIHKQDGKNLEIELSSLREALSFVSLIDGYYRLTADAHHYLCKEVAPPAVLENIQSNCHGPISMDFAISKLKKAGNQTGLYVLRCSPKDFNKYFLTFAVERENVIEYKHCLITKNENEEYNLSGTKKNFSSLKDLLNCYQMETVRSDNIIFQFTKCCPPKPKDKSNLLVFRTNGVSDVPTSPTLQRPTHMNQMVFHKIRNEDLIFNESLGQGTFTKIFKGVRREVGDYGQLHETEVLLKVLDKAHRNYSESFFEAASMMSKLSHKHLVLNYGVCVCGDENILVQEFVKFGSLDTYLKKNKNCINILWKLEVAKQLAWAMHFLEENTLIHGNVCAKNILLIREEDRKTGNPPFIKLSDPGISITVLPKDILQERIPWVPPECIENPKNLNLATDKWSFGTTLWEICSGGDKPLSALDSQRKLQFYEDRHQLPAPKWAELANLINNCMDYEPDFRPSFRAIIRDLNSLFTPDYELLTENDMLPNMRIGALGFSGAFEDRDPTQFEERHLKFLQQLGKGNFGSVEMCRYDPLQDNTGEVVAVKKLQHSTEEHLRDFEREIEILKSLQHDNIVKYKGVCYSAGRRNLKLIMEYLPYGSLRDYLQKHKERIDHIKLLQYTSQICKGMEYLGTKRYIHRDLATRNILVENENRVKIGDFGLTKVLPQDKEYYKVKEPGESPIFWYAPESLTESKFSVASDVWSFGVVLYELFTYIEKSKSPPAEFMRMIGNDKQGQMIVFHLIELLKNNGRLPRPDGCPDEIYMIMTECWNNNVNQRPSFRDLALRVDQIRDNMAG
Method: as §1, §2
JAK2(h) was incubated with 8 mM MOPS pH 7.0, 0.2 mM EDTA, 100 μM […], 10 mM magnesium acetate and [γ-^33P]-ATP (activity and concentration were determined as required). The reaction was started by adding the Mg/ATP mixture and terminated by adding 0.5% phosphoric acid after 40 min of incubation at room temperature. 10 μL of the reaction mixture was then added dropwise on a P30 filter pad and washed three times with 0.425% phosphoric acid and once with methanol within 4 minutes, then dried and analyzed using a scintillation counter.

in vitro = conditions: human, Caco-2, pH 7.4
Method: (§4) The transport buffer solution was HBSS (Hanks' balanced salt solution) and 10 mM HEPES [N-(2-hydroxyethyl)piperazine-N-(2-ethanesulfonic acid) solution], with a pH value of 7.40±0.05; Caco-2 cells were purchased from ATCC.
(§5) Caco-2 cells were seeded at 1×10^5 cells/cm^2 in 96-well BD insert plates of polyethylene terephthalate (PET), and the medium was refreshed every 4-5 days until day 21-28 to form a confluent monolayer. Test compounds were tested in a two-way format at 2 μM in duplicate. Digoxin was added at 10 μM in the two-way format, and nadolol and metoprolol were added at 2 μM in the two-way format. Final concentration of DMSO was adjusted to less than 1%. The plates were incubated in a CO2 incubator at 37±1° C. for 2 h with 5% CO2 at saturated humidity without shaking. All samples were mixed with acetonitrile containing an internal standard, and centrifuged at 4000 rpm for 10 min. 100 microliters of supernatant was diluted with 100 microliters of distilled water for LC/MS/MS analysis. By LC/MS/MS analysis, the concentrations of the test compounds and the reference compound in the initial test article solution, the test article solution and the test compound solution using the peak area ratio of the analyte to the internal standard. After the transport test, the integrity of the Caco-2 cell monolayer was determined by fluorescein yellow exclusion reaction, and the apparent permeability coefficient and efflux ratio were calculated.

TYK2(h) = TYK2(h) (Homo sapiens (Human), UniProt P29597); test: In vitro activity assay of TYK2 kinase (radiometric, Eurofins); format: biochemical
Chain of TYK2(h) (P29597 whole entry): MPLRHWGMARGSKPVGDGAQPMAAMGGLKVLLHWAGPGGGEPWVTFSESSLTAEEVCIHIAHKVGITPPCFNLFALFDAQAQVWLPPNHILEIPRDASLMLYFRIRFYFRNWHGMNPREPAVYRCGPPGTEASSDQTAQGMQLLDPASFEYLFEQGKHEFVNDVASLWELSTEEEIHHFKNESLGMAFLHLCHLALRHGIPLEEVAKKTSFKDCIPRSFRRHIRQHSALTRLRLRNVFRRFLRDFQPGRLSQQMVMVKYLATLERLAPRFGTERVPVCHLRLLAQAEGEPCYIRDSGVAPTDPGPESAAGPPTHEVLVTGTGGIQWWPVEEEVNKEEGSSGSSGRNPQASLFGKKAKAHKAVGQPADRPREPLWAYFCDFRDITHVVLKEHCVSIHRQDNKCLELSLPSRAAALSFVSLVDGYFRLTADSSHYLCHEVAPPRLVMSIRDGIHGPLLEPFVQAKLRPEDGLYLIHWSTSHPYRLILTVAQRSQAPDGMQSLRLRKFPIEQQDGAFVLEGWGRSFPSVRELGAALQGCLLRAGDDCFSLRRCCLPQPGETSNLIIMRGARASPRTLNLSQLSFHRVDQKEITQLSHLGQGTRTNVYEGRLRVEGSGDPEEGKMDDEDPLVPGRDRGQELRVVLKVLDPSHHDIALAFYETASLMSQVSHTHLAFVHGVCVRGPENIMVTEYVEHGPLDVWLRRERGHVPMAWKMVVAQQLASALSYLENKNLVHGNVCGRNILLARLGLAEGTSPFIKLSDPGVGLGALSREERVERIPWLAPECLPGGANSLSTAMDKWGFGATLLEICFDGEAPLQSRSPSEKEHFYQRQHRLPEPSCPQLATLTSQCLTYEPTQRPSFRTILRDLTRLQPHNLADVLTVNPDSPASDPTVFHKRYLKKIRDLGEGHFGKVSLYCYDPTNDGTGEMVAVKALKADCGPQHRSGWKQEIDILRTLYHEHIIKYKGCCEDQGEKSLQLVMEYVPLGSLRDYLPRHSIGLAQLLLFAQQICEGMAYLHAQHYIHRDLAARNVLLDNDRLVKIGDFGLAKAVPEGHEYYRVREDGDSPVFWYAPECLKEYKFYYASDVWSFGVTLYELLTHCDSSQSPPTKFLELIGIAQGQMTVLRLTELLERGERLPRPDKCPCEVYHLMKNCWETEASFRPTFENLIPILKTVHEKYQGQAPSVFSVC
Method: as §1, §2
as §3, with “TYK2(h)” for “JAK1(h)”, “8” for “20”, “MOPS” for “Tris/HCl”, “7.0,” for “7.5,”, “250” for “500”, “GGMEDIYFEFMGGKKK,” for “MGEEPLYWSFPAKKK,”

[2] = Pharmacokinetic (PK) test in mice; format: in vivo, mice (C57BL/6); conditions: mouse, plasma, male C57BL/6 mice
Method: Clear solutions obtained by dissolving the test compounds were administered to male mice (C57BL/6) or rats (SD) by tail vein injection and oral gavage (overnight fasting, 7-8 weeks old). After the administration of the test compounds, blood was collected from the mandibular vein and centrifuged to obtain plasma at 0.117, 0.333, 1, 2, 4, 7 and 24 h for the intravenous injection group (1 mg/kg), and at 0.25, 0.5, 1, 2, 4, 8 and 24 h for the oral gavage group (3 mg/kg). The plasma concentration was measured by LC-MS/MS, and the relevant pharmacokinetic parameters were calculated by WinNonlin™ Version 6.3 pharmacokinetic software using non-compartmental model linear logarithmic trapezoid method.

JAK3(h) = JAK3(h) (Homo sapiens (Human), UniProt P52333); test: In vitro activity assay of JAK3 kinase (radiometric, Eurofins); format: biochemical
Chain of JAK3(h) (P52333 whole entry): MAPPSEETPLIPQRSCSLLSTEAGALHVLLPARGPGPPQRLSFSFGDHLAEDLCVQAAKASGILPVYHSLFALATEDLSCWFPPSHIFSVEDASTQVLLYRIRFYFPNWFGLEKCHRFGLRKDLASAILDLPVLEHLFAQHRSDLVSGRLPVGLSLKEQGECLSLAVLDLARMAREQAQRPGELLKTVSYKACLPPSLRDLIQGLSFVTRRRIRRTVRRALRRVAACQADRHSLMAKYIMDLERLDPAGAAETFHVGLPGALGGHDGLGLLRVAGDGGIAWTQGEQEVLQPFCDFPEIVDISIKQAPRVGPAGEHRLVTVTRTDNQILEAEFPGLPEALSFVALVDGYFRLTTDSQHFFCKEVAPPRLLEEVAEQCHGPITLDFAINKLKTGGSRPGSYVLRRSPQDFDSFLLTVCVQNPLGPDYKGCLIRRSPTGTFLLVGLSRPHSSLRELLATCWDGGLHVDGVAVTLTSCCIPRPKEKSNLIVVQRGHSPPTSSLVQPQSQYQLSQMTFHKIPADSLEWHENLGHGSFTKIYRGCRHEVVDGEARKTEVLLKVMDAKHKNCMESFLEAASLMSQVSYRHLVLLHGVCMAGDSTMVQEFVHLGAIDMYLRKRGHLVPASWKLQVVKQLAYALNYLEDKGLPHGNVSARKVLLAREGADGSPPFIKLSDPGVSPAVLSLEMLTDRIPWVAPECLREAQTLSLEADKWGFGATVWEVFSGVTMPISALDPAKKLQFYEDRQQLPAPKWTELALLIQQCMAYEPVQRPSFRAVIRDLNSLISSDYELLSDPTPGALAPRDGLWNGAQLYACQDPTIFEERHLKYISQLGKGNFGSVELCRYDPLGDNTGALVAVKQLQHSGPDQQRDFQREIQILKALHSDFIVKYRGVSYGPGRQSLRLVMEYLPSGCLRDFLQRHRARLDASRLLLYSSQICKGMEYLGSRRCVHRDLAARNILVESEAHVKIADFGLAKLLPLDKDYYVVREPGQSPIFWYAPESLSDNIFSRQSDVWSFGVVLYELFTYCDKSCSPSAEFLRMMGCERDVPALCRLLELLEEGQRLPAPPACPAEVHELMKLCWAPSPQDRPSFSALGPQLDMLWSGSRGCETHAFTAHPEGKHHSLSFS
Method: as §1, §2
as §3, with “JAK3(h)” for “JAK1(h)”, “8” for “20”, “MOPS” for “Tris/HCl”, “7.0,” for “7.5,”, “GGEEEEYFELVKKKK,” for “MGEEPLYWSFPAKKK,”

[3] = Basic pKa of the compound; format: physicochemical
Excerpt: The present disclosure also performs salt-forming screening on L-aspartic acid, fumaric acid, L-tartaric acid and citric acid. Using the crystal form A of the compound represented by formula (II) as raw material, according to the basic pKa (4.47) of the compound and the rough solubility of the starting material in different solvents at room temperature, L-aspartic acid, fumaric acid, L-tartaric acid and citric acid were selected as acidic ligands (molar ratio of free state to acidic ligand was 1:1), and the specific steps of the screening test of five solvent systems as shown in Table 24 were as follows: about 20 mg of the starting crystal form A of the compound represented by formula (II) and equimolar amounts of the above acid were weighed into an HPLC vial, and 0.5 mL of the following solvent were added thereto and mixed to obtain a suspension. After suspending and stirring at room temperature for 3 days, the solid was separated by centrifugation and dried under vacuum at room temperature for about 4 hours.

Caco-2 cells = test: in vitro; conditions: Caco-2
Method: as §4, §5

[4] = iv 1 mg/kg, oral gavage 3 mg/kg

Chain of JAK1(h) (P23458 whole entry): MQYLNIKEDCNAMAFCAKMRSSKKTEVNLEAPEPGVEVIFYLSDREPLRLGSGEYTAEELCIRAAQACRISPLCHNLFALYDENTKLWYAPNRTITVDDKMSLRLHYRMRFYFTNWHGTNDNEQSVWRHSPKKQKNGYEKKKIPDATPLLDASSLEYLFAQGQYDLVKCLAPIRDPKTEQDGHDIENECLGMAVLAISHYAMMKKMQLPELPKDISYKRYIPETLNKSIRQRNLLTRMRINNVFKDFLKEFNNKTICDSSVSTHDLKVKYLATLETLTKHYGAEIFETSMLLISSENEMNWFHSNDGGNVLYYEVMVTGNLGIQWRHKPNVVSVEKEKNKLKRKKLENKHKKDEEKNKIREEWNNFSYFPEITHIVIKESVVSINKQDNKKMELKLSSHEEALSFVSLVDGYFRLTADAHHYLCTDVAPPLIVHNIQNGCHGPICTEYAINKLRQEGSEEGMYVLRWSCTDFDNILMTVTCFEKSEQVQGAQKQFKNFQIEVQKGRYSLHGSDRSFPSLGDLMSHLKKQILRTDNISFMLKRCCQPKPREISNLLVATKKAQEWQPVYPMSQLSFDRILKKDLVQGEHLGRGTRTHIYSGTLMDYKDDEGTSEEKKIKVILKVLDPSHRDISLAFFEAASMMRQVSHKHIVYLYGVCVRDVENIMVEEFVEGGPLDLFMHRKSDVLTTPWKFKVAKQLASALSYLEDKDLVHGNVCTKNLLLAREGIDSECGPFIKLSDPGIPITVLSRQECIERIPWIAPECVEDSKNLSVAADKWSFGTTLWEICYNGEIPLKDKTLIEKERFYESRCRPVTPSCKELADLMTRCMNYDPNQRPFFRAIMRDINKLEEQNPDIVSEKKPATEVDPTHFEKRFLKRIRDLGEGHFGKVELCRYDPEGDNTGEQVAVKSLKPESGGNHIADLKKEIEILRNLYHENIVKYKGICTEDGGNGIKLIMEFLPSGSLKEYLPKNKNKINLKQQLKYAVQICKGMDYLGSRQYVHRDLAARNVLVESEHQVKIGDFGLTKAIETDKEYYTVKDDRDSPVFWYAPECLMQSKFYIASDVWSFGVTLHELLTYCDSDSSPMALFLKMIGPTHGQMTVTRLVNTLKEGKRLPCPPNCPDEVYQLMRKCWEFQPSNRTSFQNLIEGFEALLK

Structure (SMILES)	IC50 (JAK1(h)) [nM]	therapeutic effect (inhibition rate versus menstruum control group) ([1]; 3 mg/kg and 10 mg/kg, P<0.0001)	Inhibition on area under the clinical score curve (AUC) ([1]; 3 mg/kg oral 2 times daily) [%]	Inhibition on area under the clinical score curve (AUC) ([1]; 10 mg/kg oral 2 times daily) [%]	IC50 (JAK2(h)) [nM]	Papp A→B at 2 h, 2 μM (in vitro) [×10⁻⁶ cm/s]	Papp B→A at 2 h, 2 μM (in vitro) [×10⁻⁶ cm/s]	efflux ratio at 2 h, 2 μM (in vitro)	IC50 (TYK2(h)) [nM]	AUC(0-inf) [2, 4] [µM·h]	Cmax [2, 4] [µM]	half-life [2, 4] [h]	bioavailability ([2]; oral gavage 3 mg/kg vs iv 1 mg/kg) [%]	IC50 (JAK3(h)) [nM]	pKa [3]	Mean apparent permeability coefficient Mean Papp A to B (Caco-2 cells)
CN(c1ncnc2[nH]ccc12)[C@@H]1CCc2cc(C#N)nn2C1	1	significant therapeutic effect	49.6	60.5	8	28.6	31.2	1.09	15	12.8	6	1.89	88.4	118	4.47	
CC(C)(C)NCC(O)COc1cccc2c1CC(O)C(O)C2 (stereo not shown) [Nadolol]																0.16 10^−6 cm/s
